The results in this text go back to a melting point compilation (Tetko et al.; mined from patent text by program, amines drawn as free bases though some values may be those of a salt).

Turning to `FC(F)(F)c1cccc(Oc2ccnc(-n3ccc(C(F)(F)F)n3)n2)c1`, the melting point lay in the range of 72 to 73 °C. For the compound `CCNC(=S)N1CCc2[nH]cnc2C1`, the melting point came to 185 °C. In turn, `CC(=O)OC1CC2(C)C(=O)CCC2C2CCC3=CC(=O)C=CC3(C)C12F` (configuration not stated) registered a melting point of 177 to 178 °C.

The compound `COc1ccc(C(=O)N2c3ccccc3C(n3c4ccccc4c4ccccc43)CC2CCCCCN(C)C(C)=O)cc1OC` (configuration not stated) registered a melting point of 173 to 175 °C. Next, `O=C(CS(=O)Cc1ccc(F)cc1)NO` (configuration not stated): 176 to 177 °C; `Nc1cccc(OCc2csc(-c3ccccc3)n2)c1`: 75 to 80 °C; `O=Cc1c(C2CC2)nc2ccccc2c1-c1ccc(F)cc1`: 152 °C. Next, `COC(=O)c1ccc(Cl)cc1NC(=O)CSc1ccc([N+](=O)[O-])cc1`: 134 to 137 °C; `O=C(NCc1ccc(Cl)cc1)c1cnc2c(I)cc(CN3CCOCC3)cc2c1O`: 230 to 233 °C; `Clc1cnc2cccc(Cl)c2n1`: 120 to 122 °C. `COC(=O)c1cn2c(NCCCCCCNS(=O)(=O)c3ccccc3[N+](=O)[O-])nsc2n1` gave a melting point of 148 to 149 °C. Next, `Clc1ccc(C2(Cn3cncn3)OCOC2c2ccc(Cl)cc2Cl)cc1` (configuration not stated): 201 to 203 °C; `CS(=O)(=O)c1cc(Cl)cc(O)c1O`: 142 to 145 °C. Regarding `O=C(O)CC1CCCN(C(=O)c2ccc(N3CCCC3)cc2Cl)c2ccccc21` (configuration not stated), the melting point lay within 191 to 192 °C. Next, `COC(=O)c1cc(C(=O)N2CCC(O)CC2)cc(-n2cccc2)c1`: 158 to 159 °C; `O=C(c1cn(-c2ccccc2)nc1-c1ccc([N+](=O)[O-])o1)N1CCCC1`: 236 to 238 °C. As to `CCOC(=O)Cc1csc(Sc2ccc(OCc3nc(-c4ccccc4)oc3C)cc2)n1`, the melting point lay within 95 to 96 °C. Compound `CCOC(=O)NC(=O)C(=NNc1cc(Cl)c(C(C)(C)C#N)c(Cl)c1)C(=O)NC(=O)OCC` registered a melting point of 212 °C.

`Cc1cc(CC2SCNC2=O)cc(C(C)(C)C)c1O` (configuration not stated) had a melting point of 64 to 68 °C. In the case of `COc1cc(C(=O)N2CCN(C(=O)C3=Cc4cc(C)c(C)cc4OCC3)CC2)cc(OC)c1OC`, the melting point was in the range of 177 to 178 °C. `O=C1C(CCO)Oc2ccc(-c3ccccc3)cc2N1Cc1cccc(Cl)c1` (configuration not stated) displayed a melting point of 119 to 121 °C. Compound `Ic1nc(-c2ccccn2)[nH]c1I` displayed a melting point of 177 to 179 °C. Turning to `CCCc1c(OCCCO)ccc(C(C)=O)c1O`, the melting point fell in the range of 57 to 59 °C. The compound `C=CCNC(=O)n1nc(-c2ccccc2)cc1NC(=O)CC(=O)C(F)(F)F` came in with a melting point of 114 to 116 °C. Regarding `CNC(=O)c1ccc(Nc2nc(Nc3cc4c(cc3OC)CCN(C(COC)COC)CC4)ncc2Cl)c(OC)c1`, the melting point is 85 to 97 °C. Consider `CC(=O)Oc1ccccc1C(=O)NC1CCN(CCCOc2ccccc2C#N)CC1`, for which the melting point fell in the range of 80 to 82 °C.

Compound `O=c1ccc(C(c2ccc(Cl)cc2)c2ccc(Cl)cc2)c[nH]1` displayed a melting point of 211 to 215 °C. Take `CC(O)(CCC#N)c1ccc(Oc2cccc(Cl)c2)cc1` (configuration not stated): the melting point lay within 68 to 70 °C. As to `CC12CCC3c4ccc(O)cc4CC(O)C3C1CCC2O` (configuration not stated), the melting point was 254 to 257 °C.

With `O=C(OCc1ccccc1)C(O)P(=O)(OCc1ccccc1)OCc1ccccc1` (configuration not stated), the melting point lay in the range of 67 to 68 °C. Next, `COc1ccccc1N1CCN(CC(C(=O)NC(C)(C)C)c2ccccn2)CC1` (configuration not stated): 138 to 139 °C. In the case of `COc1ccc(N2CCN(c3ccc(-n4c(C)n[nH]c4=O)cn3)CC2)cc1`, the melting point fell in the range of 251 to 252 °C. `CC(C)(C)c1cc(-c2noc(=O)[nH]2)cc(C(C)(C)C)c1O`: the melting point is 189 to 191 °C. Compound `CCCCOc1c(CNC(=O)OC(C)(C)C)n(CC(C)(C)C)c(=O)c2ccc(CO)cc12` showed a melting point of 92 to 93 °C.

`CCc1c(-c2ccc(N3CCN(C)CC3)nn2)ssc1=S`: the melting point came to 182 °C. Consider `COc1cc(NC2=C(Cl)C(=O)c3ccccc3C2=O)ccc1S(=O)(=O)Nc1cccc(C)c1`, for which the melting point lay in the range of 286 to 288 °C. Compound `CN1C(=O)c2cccnc2NS1(=O)=O` returned a melting point of 290 to 292 °C.

On to `CN1CNC(=S)N(c2ccccc2)C1`, for which the melting point fell in the range of 175 to 176 °C. Next, `CC1=C(C(=O)OC(C)C)C(c2cccc([N+](=O)[O-])c2)C(S(=O)(=O)N(C)C)=C(C)N1` (configuration not stated): 136 to 138 °C.

Turning to `O=C(C=Cc1ccc(COc2ccccc2)cc1)NC(Cc1ccccc1)C(=O)O` (configuration not stated), the melting point came out at 205 °C. `CC(c1oc2ccccc2c(=O)c1-c1cccc(F)c1)n1nc(C#CCO)c2c(N)ncnc21` (configuration not stated) registered a melting point of 171 to 173 °C. `Nc1ncnc2c1ncn2COCCN1C(=O)c2ccccc2C1=O` gave a melting point of 256 to 258 °C. As to `CCCCCCCCCCCCCCCC(=O)OCC(COC(=O)CCCCCCCCCCCCCCC)OCn1cnc2c(=O)[nH]c(N)nc21`, the melting point lay within 150 to 154 °C.

`Nc1ccncc1NC(=S)NCCN1CCC(Nc2nc3ccccc3n2Cc2ccc(F)cc2)C1` (configuration not stated) yielded a melting point of 225 °C. With `CC(C)C(CS(=O)(=O)c1ccc(-c2cccc(CNC(=O)c3nc4ccccc4c(=O)[nH]3)c2)cc1)N(O)C=O` (configuration not stated), the melting point was 153 to 155 °C. In turn, `Cc1ccc(C(=O)Nc2cn(C3CCCCO3)nc2C(=O)NCCO)cn1` (configuration not stated) showed a melting point of 140 °C. For `O=C(NCCN1CCC(O)(c2ccc(Cl)cc2)CC1)c1ccccc1Br`, the melting point stood at 121 °C. `CCCc1ccc(-c2c(-c3ccc(S(C)(=O)=O)cc3)cnn(CC(F)(F)F)c2=O)cc1`: the melting point lay within 64 to 66 °C. In the case of `O=C1c2ccccc2C(=O)N1CCCn1cc(S(=O)(=O)c2ccccc2)c2ccccc21`, the melting point is 205 to 206 °C.

In turn, `Nc1c(Cl)cc(C(O)CNCCCCCCOCCCCc2ncccc2O)cc1Cl` (configuration not stated) came in with a melting point of 95 to 96 °C. As for `NS(=O)(=O)C1=CC2=C(OCCO)CCSC2S1` (configuration not stated), the melting point lay within 110 to 113 °C. Compound `CC(Cc1ccc(C(=O)c2ccc(Cl)cc2)cc1)S(=O)(=O)C(F)(F)F` (configuration not stated) had a melting point of 107 to 109 °C.

As for `Nc1ccc(Oc2ccc(Cl)c(Cl)c2)nc1`, the melting point lay in the range of 78 to 79.3 °C. Then `O=C1CN(C(=O)c2ccc(Cl)cc2)N(Cc2ccc(Cl)cc2)C(=O)N1`, with 202 °C; and `OC(CCN1CC=C(c2ccc(Cl)cc2)CC1)c1cccc2ccccc12` (configuration not stated), with 122 to 123 °C; and `CC12CCC3c4ccc(C(=O)O)cc4CCC3C1CCC2C(=O)C=Cc1ccccc1` (configuration not stated), with 177 to 181 °C. `COc1cc(Nc2nccc(C(=O)c3ccccc3)n2)cc(OC)c1OC` returned a melting point of 165 °C. Compound `CNC(=O)c1cc(N2CCOCC2)cc([N+](=O)[O-])c1` gave a melting point of 204 to 207 °C. With `Cc1cn(-c2cc(NC(=O)c3ccc(Cl)c(C#Cc4ccc(NC5CCC5)nn4)c3)cc(C(F)(F)F)c2)cn1`, the melting point was in the range of 225 to 227 °C. Consider `COC(=O)[C@]1(C)CCc2c(C)c(OCc3ccccc3)c(C)c(C)c2O1`, for which the melting point was 102 to 106 °C. Then `O=C(Cc1noc2ccccc12)NS(=O)(=O)c1ccc(Cl)cc1`, with 209 to 211 °C.

With `COc1ccc(C(=O)Nc2ccccc2)cc1NS(=O)(=O)c1cc(Cl)sc1Cl`, the melting point fell in the range of 189 to 190 °C. Regarding `CSc1nc(-c2ccccn2)n(-c2ccc(F)cc2)c(=O)c1C#N`, the melting point lay within 221 to 227 °C. `CCCc1c(S)ccc2c(=O)c(C(=O)OC)coc12`: the melting point lay within 98 to 99 °C.

In turn, `CS(=O)c1cc(O)ccc1-c1nc2cnccc2[nH]1` (configuration not stated) gave a melting point of 215 °C. `CC1(C)C2CC[C@]1(C)C(=O)C(C(=O)Nc1cc(Cl)cc(Cl)c1)C2=O` (some centres not stated) returned a melting point of 112 to 114 °C.

Take `CCCCc1nc(Cc2ccc(-c3ccccc3C(=O)O)cc2)c(CC(=O)O)c(Cc2ccc(-c3ccccc3C(=O)O)cc2)n1`: the melting point stood at 160 °C.

On to `Nc1ccccc1C(=O)NCC1CCN(C(c2ccccc2)c2ccccc2)CC1`, for which the melting point is 153 to 154 °C.

`Nc1ccnn1-c1c(Cl)cc(C(F)(F)F)c(Cl)c1Cl` displayed a melting point of 109 to 114 °C. `CC1=CC(=Nc2nccs2)C(C)C(C)=C1O` (configuration not stated) had a melting point of 95 to 96 °C. For the compound `O=c1ccoc2ccc(OCCCCCl)cc12`, the melting point fell in the range of 75 to 77 °C. Then `O=c1c2c([nH]c3ccccc13)C(C1Cc3ccccc3O1)N(c1ncc(-c3ccccn3)cn1)C2` (configuration not stated), with 201 to 203 °C; and `C(=NNc1ccccc1)c1ccccn1`, with 179 °C. `O=Cc1coc2cc3c(cc2c1=O)OCO3` had a melting point of 232 to 233 °C. Turning to `Cc1cc2c(cc1Br)OCC(C)(C)CC2(O)c1ccccn1` (configuration not stated), the melting point came to 129 °C. Then `CCOC(=O)c1cc(O)cc(C(=O)OCC)c1`, with 106 °C; and `NN1CCN(CC(O)c2c[nH]c3ccccc23)CC1` (configuration not stated), with 174 to 177 °C. In turn, `C[Si](C)(C)Oc1ccc(SSc2ccc(O[Si](C)(C)C)cc2)cc1` showed a melting point of 21 to 22 °C.

The compound `O=C(Nc1ccc(OCCN2CCOCC2)c2ccccc12)c1cccc(N2CCCCC2)c1` yielded a melting point of 147 to 148 °C. `CN(C)c1nc(NCc2ccc(NC(=O)c3ccc(F)cc3)cc2)c2ccc(-c3ccccc3C=O)cc2n1` gave a melting point of 128 °C. For `CN(C)C=NS(=O)(=O)c1cc(Br)cc(Br)c1`, the melting point was 157 to 158 °C.

For the compound `O=c1[nH]c2ccccc2n1CCCN1CCC(c2noc3cc(F)ccc23)CC1`, the melting point is 175 to 177 °C. Compound `N=C(N)c1ccc(-c2ccc(-c3ccc(-c4ccc(C(=N)N)cn4)o3)o2)nc1` showed a melting point above 300 °C. Take `O=C(NCCO)c1cc(C(=O)NCCO)cc([N+](=O)[O-])c1`: the melting point came to 151 °C. With `COCN1C(C)=C(C(=O)OCOC(=O)C(C)(C)C)C(c2ccccc2)C(C(=O)OCOC(=O)C(C)(C)C)=C1C`, the melting point was in the range of 89 to 90 °C. As to `c1ccn(-c2nc(COc3ccc(CCCn4ccnc4)cc3)cs2)c1`, the melting point lay within 93 to 94 °C.

In turn, `COc1cc(C)nc(NC(=O)NS(=O)(=O)c2cc([N+](=O)[O-])cs2)n1` displayed a melting point of 155 °C.

Usually melting point stands for the temperature, or range, at which the solid turns liquid.
